{"source": "patent US11771694B2", "about": "“Arylamide compounds for treatment and prevention of viral infections” (priority 2020, dated 2023)", "key": {"[1]": {"tested_on": "dextran sulfate sodium (DSS) induced colitis", "experiment": "Mouse DSS colitis model", "format": "in vivo, mice", "conditions": "mouse, in vivo"}, "Staph. epidermidis": {"tested_on": "Staph. epidermidis", "experiment": "Broth microdilution MIC", "format": "cell-based", "conditions": "Staphylococcus epidermidis"}, "Klebsiella oxtoca": {"tested_on": "Klebsiella oxtoca", "experiment": "Broth microdilution MIC", "format": "cell-based"}, "Proteus vulgaris": {"tested_on": "Proteus vulgaris", "experiment": "Broth microdilution MIC", "format": "cell-based"}, "Providencia stuartii": {"tested_on": "Providencia stuartii", "experiment": "Broth microdilution MIC", "format": "cell-based"}, "[2]": {"tested_on": "stationary phase cultures of MSSA and MRSA", "experiment": "Time-kill against stationary phase cultures of MSSA and MRSA", "format": "cell-based, Staph. aureus", "conditions": "up to 10× the MIC; data not shown"}, "Entero. faecalis": {"tested_on": "Entero. faecalis", "experiment": "Broth microdilution MIC", "format": "cell-based", "conditions": "Enterococcus faecalis"}, "Entero. faecium (VRE)": {"tested_on": "Entero. faecium (VRE)", "experiment": "Broth microdilution MIC", "format": "cell-based", "conditions": "Enterococcus faecium"}, "Staph. aureus (MRSA)": {"tested_on": "Staph. aureus (MRSA)", "experiment": "Broth microdilution MIC", "format": "cell-based", "conditions": "Staphylococcus aureus"}, "Staph. saprophyticus": {"tested_on": "Staph. saprophyticus", "experiment": "Broth microdilution MIC", "format": "cell-based", "conditions": "Staphylococcus saprophyticus"}, "Staph. spp. coagulase-": {"tested_on": "Staph. spp. coagulase-", "experiment": "Broth microdilution MIC", "format": "cell-based"}, "Strept. agalactiae": {"tested_on": "Strept. agalactiae", "experiment": "Broth microdilution MIC", "format": "cell-based", "conditions": "Streptococcus agalactiae"}, "Strept. pneumoniae": {"tested_on": "Strept. pneumoniae", "experiment": "Broth microdilution MIC", "format": "cell-based", "conditions": "Streptococcus pneumoniae"}, "Strept. pyogenes": {"tested_on": "Strept. pyogenes", "experiment": "Broth microdilution MIC", "format": "cell-based", "conditions": "Streptococcus pyogenes"}, "Strept. viridians": {"tested_on": "Strept. viridians", "experiment": "Broth microdilution MIC", "format": "cell-based"}, "Citrobacter fruendi": {"tested_on": "Citrobacter fruendi", "experiment": "Broth microdilution MIC", "format": "cell-based"}, "Citrobacter koseri": {"tested_on": "Citrobacter koseri", "experiment": "Broth microdilution MIC", "format": "cell-based"}, "Enterobacter cloacae": {"tested_on": "Enterobacter cloacae", "experiment": "Broth microdilution MIC", "format": "cell-based"}, "Escherichia coli": {"tested_on": "Escherichia coli", "experiment": "Broth microdilution MIC", "format": "cell-based"}, "Klebsiella pneumoniae": {"tested_on": "Klebsiella pneumoniae", "experiment": "Broth microdilution MIC", "format": "cell-based"}, "Morganella morganii": {"tested_on": "Morganella morganii", "experiment": "Broth microdilution MIC", "format": "cell-based"}, "Proteus mirabilis": {"tested_on": "Proteus mirabilis", "experiment": "Broth microdilution MIC", "format": "cell-based"}, "Acinetobacter spp.": {"tested_on": "Acinetobacter spp.", "experiment": "Broth microdilution MIC", "format": "cell-based", "conditions": "2-3 isolates/organism"}, "Pseud. aeruginosa": {"tested_on": "Pseud. aeruginosa", "experiment": "Broth microdilution MIC", "format": "cell-based", "conditions": "Pseudomonas aeruginosa"}, "Serratia marcescens": {"tested_on": "Serratia marcescens", "experiment": "Broth microdilution MIC", "format": "cell-based"}, "[3]": {"tested_on": "Stenotrophomonas maltophilia", "experiment": "Broth microdilution MIC", "format": "cell-based"}, "Haemophilus influenzae": {"tested_on": "Haemophilus influenzae", "experiment": "Broth microdilution MIC", "format": "cell-based"}, "SARS-CoV-2": {"tested_on": "SARS-CoV-2", "format": "cell-based", "conditions": "Calu-3; MOI 0.05; 24 hpi"}, "[4]": {"conditions": "2-3 isolates/organism, read-out: MIC"}}, "note": "Read-outs that look alike come from different tables or passages of the source.", "data": [{"smiles": "Nc1ccc(O)c(C(=O)O)c1", "note": "[5-ASA, reference compound]", "values": [{"measurement": "mean reduction in IL-1β in distal colon tissue", "setting": "[1]", "result": 33, "unit": "%"}, {"measurement": "mean reduction in IL-6 in distal colon tissue", "setting": "[1]", "result": 86, "unit": "%"}]}, {"smiles": "CC(C)(O/N=C(\\C(=O)N[C@@H]1C(=O)N2C(C(=O)[O-])=C(C[n+]3ccccc3)CS[C@H]12)c1csc(N)n1)C(=O)O", "note": "[Ceftazidime]", "values": [{"measurement": "MIC", "setting": "Staph. epidermidis", "result": "16 to 32", "unit": "µg/mL"}, {"measurement": "MIC", "setting": "Klebsiella oxtoca; Klebsiella", "result": "0.06 to 0.12", "unit": "µg/mL"}, {"measurement": "MIC", "setting": "Proteus vulgaris", "result": 0.12, "unit": "µg/mL"}, {"measurement": "MIC", "setting": "Providencia stuartii", "result": "0.12 to 64", "unit": "µg/mL"}]}, {"smiles": "CCCCCCCCCC(=O)N[C@@H](Cc1c[nH]c2ccccc12)C(=O)N[C@H](CC(N)=O)C(=O)N[C@@H](CC(=O)O)C(=O)N[C@@H]1C(=O)NCC(=O)N[C@@H](CCCN)C(=O)N[C@@H](CC(=O)O)C(=O)N[C@H](C)C(=O)N[C@@H](CC(=O)O)C(=O)NCC(=O)N[C@H](CO)C(=O)N[C@@H]([C@H](C)CC(=O)O)C(=O)N[C@@H](CC(=O)c2ccccc2N)C(=O)O[C@@H]1C", "note": "[Daptomycin, reference compound]", "values": [{"measurement": "antimicrobial activity against stationary phase cultures", "setting": "[2]", "result": "little antimicrobial activity"}]}, {"smiles": "CC(=O)NC[C@H]1CN(c2ccc(N3CCOCC3)c(F)c2)C(=O)O1", "note": "[Linezolid]", "values": [{"measurement": "MIC", "setting": "Entero. faecalis; Entero. faecalis, 2-3 isolates/organism, read-out: MIC", "result": "1 to 2", "unit": "µg/mL"}, {"measurement": "MIC", "setting": "Entero. faecium (VRE); Entero. faecium (VRE), 2-3 isolates/organism, read-out: MIC", "result": "1 to 2", "unit": "µg/mL"}, {"measurement": "MIC", "setting": "Staph. aureus (MRSA); Staph. aureus (MRSA), 2-3 isolates/organism, read-out: MIC", "result": "1 to 2", "unit": "µg/mL"}, {"measurement": "MIC", "setting": "Staph. epidermidis; Staph. epidermidis, 2-3 isolates/organism, read-out: MIC", "result": "0.5 to 1", "unit": "µg/mL"}, {"measurement": "MIC", "setting": "Staph. saprophyticus; Staph. saprophyticus, 2-3 isolates/organism, read-out: MIC", "result": "1 to 2", "unit": "µg/mL"}, {"measurement": "MIC", "setting": "Staph. spp. coagulase-; Staph. spp. coagulase-, 2-3 isolates/organism, read-out: MIC", "result": 1, "unit": "µg/mL"}, {"measurement": "MIC", "setting": "Strept. agalactiae; Strept. agalactiae, 2-3 isolates/organism, read-out: MIC", "result": 1, "unit": "µg/mL"}, {"measurement": "MIC", "setting": "Strept. pneumoniae; Strept. pneumoniae, 2-3 isolates/organism, read-out: MIC", "result": 1, "unit": "µg/mL"}, {"measurement": "MIC", "setting": "Strept. pyogenes; Strept. pyogenes, 2-3 isolates/organism, read-out: MIC", "result": 1, "unit": "µg/mL"}, {"measurement": "MIC", "setting": "Strept. viridians; Strept. viridians, 2-3 isolates/organism, read-out: MIC", "result": 1, "unit": "µg/mL"}, {"measurement": "MIC", "setting": "Citrobacter fruendi; Citrobacter fruendi, 2-3 isolates/organism, read-out: MIC", "result": "> 16", "unit": "µg/mL"}, {"measurement": "MIC", "setting": "Citrobacter koseri; [4]", "result": "> 16", "unit": "µg/mL"}, {"measurement": "MIC", "setting": "Enterobacter cloacae; [4]", "result": "> 16", "unit": "µg/mL"}, {"measurement": "MIC", "setting": "Escherichia coli; [4]", "result": "> 16", "unit": "µg/mL"}, {"measurement": "MIC", "setting": "Klebsiella oxtoca; Klebsiella oxtoca, 2-3 isolates/organism, read-out: MIC", "result": "> 16", "unit": "µg/mL"}, {"measurement": "MIC", "setting": "Klebsiella pneumoniae; [4]", "result": "> 16", "unit": "µg/mL"}, {"measurement": "MIC", "setting": "Morganella morganii; [4]", "result": "> 16", "unit": "µg/mL"}, {"measurement": "MIC", "setting": "Proteus mirabilis; [4]", "result": "> 16", "unit": "µg/mL"}, {"measurement": "MIC", "setting": "Proteus vulgaris; [4]", "result": "> 16", "unit": "µg/mL"}, {"measurement": "MIC", "setting": "Providencia stuartii; [4]", "result": "> 16", "unit": "µg/mL"}, {"measurement": "MIC", "setting": "Acinetobacter spp.", "result": "> 16", "unit": "µg/mL"}, {"measurement": "MIC", "setting": "Pseud. aeruginosa; Pseud. aeruginosa, 2-3 isolates/organism, read-out: MIC", "result": "> 16", "unit": "µg/mL"}, {"measurement": "MIC", "setting": "Serratia marcescens; [4]", "result": "> 16", "unit": "µg/mL"}, {"measurement": "MIC", "setting": "[3]; [4]", "result": "> 16", "unit": "µg/mL"}]}, {"smiles": "CN[C@H](CC(C)C)C(=O)N[C@H]1C(=O)N[C@@H](CC(N)=O)C(=O)N[C@H]2C(=O)N[C@H]3C(=O)N[C@H](C(=O)N[C@H](C(=O)O)c4cc(O)cc(O)c4-c4cc3ccc4O)[C@H](O)c3ccc(c(Cl)c3)Oc3cc2cc(c3O[C@@H]2O[C@H](CO)[C@@H](O)[C@H](O)[C@H]2O[C@H]2C[C@](C)(N)[C@H](O)[C@H](C)O2)Oc2ccc(cc2Cl)[C@H]1O", "note": "[Vancomycin]", "values": [{"measurement": "MIC", "setting": "Entero. faecalis", "result": 1, "unit": "µg/mL"}, {"measurement": "MIC", "setting": "Entero. faecium (VRE); VRE", "result": "> 128", "unit": "µg/mL"}, {"measurement": "MIC", "setting": "Staph. aureus (MRSA); MRSA", "result": "0.5 to 1", "unit": "µg/mL"}, {"measurement": "MIC", "setting": "Staph. epidermidis", "result": 2, "unit": "µg/mL"}, {"measurement": "MIC", "setting": "Staph. saprophyticus", "result": "1 to 2", "unit": "µg/mL"}, {"measurement": "MIC", "setting": "Staph. spp. coagulase-", "result": "1 to 2", "unit": "µg/mL"}, {"measurement": "MIC", "setting": "Strept. agalactiae", "result": 0.5, "unit": "µg/mL"}, {"measurement": "MIC", "setting": "Strept. pneumoniae", "result": 0.5, "unit": "µg/mL"}, {"measurement": "MIC", "setting": "Strept. pyogenes", "result": 0.5, "unit": "µg/mL"}, {"measurement": "MIC", "setting": "Strept. viridians", "result": "0.5 to 1", "unit": "µg/mL"}, {"measurement": "MIC", "setting": "Citrobacter fruendi; Citrobacter", "result": "> 128", "unit": "µg/mL"}, {"measurement": "MIC", "setting": "Citrobacter koseri", "result": "> 128", "unit": "µg/mL"}, {"measurement": "MIC", "setting": "Enterobacter cloacae", "result": "> 128", "unit": "µg/mL"}, {"measurement": "MIC", "setting": "Escherichia coli", "result": "> 128", "unit": "µg/mL"}, {"measurement": "MIC", "setting": "Klebsiella oxtoca; Klebsiella", "result": "> 128", "unit": "µg/mL"}, {"measurement": "MIC", "setting": "Klebsiella pneumoniae", "result": "> 128", "unit": "µg/mL"}, {"measurement": "MIC", "setting": "Morganella morganii", "result": "> 128", "unit": "µg/mL"}, {"measurement": "MIC", "setting": "Proteus mirabilis", "result": "> 128", "unit": "µg/mL"}, {"measurement": "MIC", "setting": "Proteus vulgaris", "result": "> 128", "unit": "µg/mL"}, {"measurement": "MIC", "setting": "Providencia stuartii", "result": "> 128", "unit": "µg/mL"}, {"measurement": "MIC", "setting": "Pseud. aeruginosa", "result": "> 128", "unit": "µg/mL"}, {"measurement": "MIC", "setting": "Serratia marcescens", "result": "> 128", "unit": "µg/mL"}, {"measurement": "MIC", "setting": "[3]", "result": "32 to 128", "unit": "µg/mL"}, {"measurement": "MIC", "setting": "Haemophilus influenzae", "result": 128, "unit": "µg/mL"}]}, {"smiles": "NC(=O)c1nc(F)c[nH]c1=O", "note": "[favipiravir, reference compound]", "values": [{"measurement": "inhibition of infectious titer, each drug alone", "setting": "SARS-CoV-2", "result": "≤ 80", "unit": "%"}]}]}
